Results published in article PMC7019114, “Bioactivity, Compounds Isolated, Chemical Qualitative, and Quantitative Analysis of Cymbaria daurica Extracts” (Frontiers in Pharmacology, 2020).
Values belong to the molecule of their own block, whether it stands above or below them.

Key:
[1] = test system: streptozotocin-induced diabetic rats; set-up: method as in Huang et al., 2010; conditions: intravenous injection, ref Huang et al., 2010; cited from earlier work
[2] = test system: intestinal inflammation model; set-up: method as in Carrillo-Ocampo et al., 2013; conditions: ref Carrillo-Ocampo et al., 2013; cited from earlier work
[3] = test system: tyrosine phosphatase SHP-1; set-up: method as in Pesce et al., 2015; conditions: U937 cell line; ref Pesce et al., 2015; cited from earlier work
[4] = test system: LPS-induced NO production in RAW 264.7 cell; assay: Nitric oxide assay (Griess test), LPS-induced NO production; assay type: cell-based; conditions: Mus musculus; RAW264.7 cell, LPS 1 μg/mL, positive control, n = 5; read-out: IC50 of inhibitory activity on LPS-induced NO production
Procedure: RAW 264.7 mouse macrophages were cultured in high glucose DMEM supplemented with 10% FBS and a mixture of penicillin and streptomycin. The cells were maintained in a humidified incubator with an atmosphere of 5% CO2 at 37°C. RAW 264.7 cells were plated at a density of 5 × 10^5 cells/mL in 24-well plates, cultured for 12 h, and then treated with LPS (1 μg/mL) and incubated for 4 h. Thereafter, the cells were treated with different concentrations (25, 50, 100, 200, and 400 μg/mL) of C. daurica extracts (water, n-butanol, ethyl acetate, and petroleum-ether extracts) and incubated for an additional 20 h. […] The amount of NO in the medium was detected using the Griess test. One hundred microliters of each supernatant were mixed with equal volume of Griess reagent (1% sulfanilamide in 5% phosphoric acid and 0.1% naphthylethylenediamine dihydrochloride in water). The absorbance of the mixture at 550 nm and concentration of nitrite were determined using serially diluted sodium nitrite as the standard ([Qiao et al., 2005]).

SMILES: OC[C@H]1O[C@@H](O[C@@H]2OC=C[C@H]3[C@H](O)[C@@H]4O[C@]4(CO)[C@@H]23)[C@H](O)[C@@H](O)[C@@H]1O [Compound 1, catalpol]
anti-hyperglycemic activity [1]: exhibited anti-hyperglycemic activity in a dose-dependent manner

SMILES: C[C@@H]1O[C@@H](O[C@@H]2[C@@H](O)[C@H](OCCc3ccc(O)c(O)c3)O[C@H](CO)[C@H]2OC(=O)/C=C/c2ccc(O)c(O)c2)[C@H](O)[C@H](O)[C@H]1O [Compound 7, verbascoside]
presence of pro-inflammatory molecules [2]: decreased the presence of pro-inflammatory molecules | activity of tyrosine phosphatase SHP-1 [3]: increasing the activity of tyrosine phosphatase SHP-1

IC50 [4]: 60 ± 0.8 µM
SMILES: COc1ccc2c(c1)c(CC(=O)O)c(C)n2C(=O)c1ccc(Cl)cc1 [Indomethacin]
